This note sets out measurements from patent US5739162A, “Carbamoylmethylurea derivatives” (Shionogi & Co., Ltd., priority 1994, dated 1998).

Structures are written as SMILES.

One assay concerns the target T1, gastrin receptor (Cavia porcellus, UniProt H0VZC5).
T1 construct: stomach was extracted from each animal immediately, from which gastric glands were prepared; from tissue; host or cells: gastric (fundic) glands of male Hartley guinea pigs
T1 sequence (H0VZC5 1-426): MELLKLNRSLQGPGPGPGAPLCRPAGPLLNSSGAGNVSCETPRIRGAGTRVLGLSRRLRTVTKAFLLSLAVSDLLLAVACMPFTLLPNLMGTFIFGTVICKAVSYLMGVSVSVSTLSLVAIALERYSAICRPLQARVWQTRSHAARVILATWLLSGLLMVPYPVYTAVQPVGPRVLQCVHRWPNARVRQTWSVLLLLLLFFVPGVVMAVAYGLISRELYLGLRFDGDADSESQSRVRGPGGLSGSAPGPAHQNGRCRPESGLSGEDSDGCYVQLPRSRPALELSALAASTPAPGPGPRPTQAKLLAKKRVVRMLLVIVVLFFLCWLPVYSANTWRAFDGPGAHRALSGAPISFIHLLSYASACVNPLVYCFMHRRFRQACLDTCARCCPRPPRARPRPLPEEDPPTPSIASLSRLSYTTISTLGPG
Put plainly: Gastrin receptor antagonism: displacement of 125I-labeled gastrin from gastric glands. The settings on record: guinea pig fundic gastric glands; 125I-gastrin 0.2 nM; 30 min, 25° C. It is filed as binding, guinea pig (male Hartley). Here is the method:
(§1) The pharmacological effect of compounds (I) prepared in Examples above were evaluated in vitro with respect to antagonistic activity against gastrin receptor, CCK-B receptor or CCK-A receptor, using fundic gland cells of guinea pig, crude membrane specimen from mouse cerebral cortex, or crude membrane specimen from mouse pancreas, respectively.
(§2) Male Hartley guinea pig (450-600 g) or male ddY mouse (24-30 g) were used.
(1) Gastrin Receptor Antagonism
Preparation of gastric glands
Male Hadley guinea pigs (450-600 g) were killed by bleeding and stomach was extracted from each animal immediately, from which gastric glands were prepared.
Preparation of test compounds and procedures of displacing assay A 1M solution of a compound to be tested in DMSO is prepared and diluted with 50% DMSO to obtain a ten-fold dilution series.
The reaction is initiated by the addition of gastric glands to solutions of different concentration each containing ^125 I-labeled gastrin (final concentration, 0.2 nM). The mixture is incubated for 30 min at 25° C., centrifuged at 2000 rpm for 5 min and the supernatant is removed by aspiration. To the pellet is added ice-cooled incubation buffer and mixed gently, followed by an immediate centrifugation and removal of the supernatant by aspiration. The radioactivity is counted on gamma counter. The same procedure was repeated using 50% DMSO solution or human gastrin I (final concentration, 2 μM) instead of a solution of test compound so as to obtain the control value regarding total binding or the value regarding non-specific binding, respectively.
(§3) The IC50 was determined by plotting the ratio (%) of specific binding of a test compound to that of control on semilogarithmic graph and obtaining the concentration corresponding to 50%, wherein: specific binding of control=total binding (cpm)--non-specific binding (cpm); and specific binding of test compound=total binding (cpm)--non-specific binding (cpm).

Another assay has as its system gastric acid secretion. Put plainly: Inhibitory effect on pentagastrin-stimulated gastric acid secretion in anesthetized rat (perfused stomach, Schild method). The format is in vivo, rat (Sprague Dawley). The settings on record: intraduodenal (i.d.), 0.5% M.C. suspension; for ED50: Rattus norvegicus. From the text:
Anti-acid secreting function of carbamoylmethylurea derivative (I) of the present invention has been confirmed by the in vivo experiment (cf. Schild Method; Experiment 1 below). […] From the results of these experiments, it is apparent that the carbamoylmethylurea derivative (I) has an anti-acid secreting function, and is an excellent gastrin receptor antagonist and/or CCK-B receptor antagonist which has enough functional separativeness from CCK-A receptor.
Experiment 1 In Vivo Test
Evaluation of Inhibitory Effect on Gastric Acid Secretion by Child Method
Twenty four hour starved (ad libitum for water) male Sprague Daily rats (8-week-old) were anesthetized with urethane (1.5 g/kg S.C.) and kept breathing with esophagus cannulas. After laparotomy, esophagus cannulas were inserted orally up to proventriculus and ligated around gastric cardiac. Perfusion cannulas were inserted from duodenum into stomach and ligated around pylorus. Another cannulas were placed into duodenum and ligated for administration of drug. After sutra of abdomen, stomach was perfused via the esophagus cannulas with physiological saline (37° C.) while collecting perfusate for a 15 min interval. The perfusate was subjected to titration with 0.001N NaOH solution to determine the acidity. When the basal acid secretion became stable, pentagastrin ([…])was administered in a sustained manner via common carotid vein for about 90 min until the acid secretion reached approximately the highest level, when a test compound (0.5% M.C. suspension) was administered into duodenum through cannulas. The perfusate was collected for a 15 min interval to monitor the acid secretion for 90 min. The percent inhibition was calculated as follows:
Percent inhibition (%)=100×(A-B)/(C-B)
A: the minimum value of total acidity observed after the administration of a test compound;
B: the total acidity obtained immediately before the administration of pentagastrin; and
C: the total acidity obtained immediately before the administration of a test compound.

The next assay addresses T2, CCK-A receptor (Mus musculus, UniProt O08786).
T2 construct: crude membrane specimen from mouse pancreas; from tissue; host or cells: pancreas of male ddY mice, crude membranes
T2 sequence (O08786 1-436): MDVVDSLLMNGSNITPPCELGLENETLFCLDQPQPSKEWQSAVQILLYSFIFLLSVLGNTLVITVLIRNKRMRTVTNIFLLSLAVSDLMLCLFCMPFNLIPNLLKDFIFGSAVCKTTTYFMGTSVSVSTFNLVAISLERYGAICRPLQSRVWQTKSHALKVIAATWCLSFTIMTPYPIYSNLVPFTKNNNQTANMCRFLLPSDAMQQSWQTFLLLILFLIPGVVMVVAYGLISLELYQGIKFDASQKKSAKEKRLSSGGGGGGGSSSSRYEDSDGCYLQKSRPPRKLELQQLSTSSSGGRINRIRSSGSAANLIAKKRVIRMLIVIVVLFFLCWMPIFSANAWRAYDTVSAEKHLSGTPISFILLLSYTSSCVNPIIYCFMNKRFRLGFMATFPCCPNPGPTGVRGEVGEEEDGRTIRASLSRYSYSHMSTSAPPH
Put plainly: CCK-A receptor antagonism: displacement of [3H]CCK-8 from crude membrane of pancreas. It is filed as binding, mouse (male ddY). The settings on record: [3H]CCK-8 1 nM, 90 min, 25° C. Here is the method: as §1, §2
(§4) (2) CCK-A Receptor Antagonism and CCK-B Receptor Antagonism Preparation of CCK receptor preparations Male ddY mice (24 to 30 g) were killed by decapitation and cerebral cortex (CCK-B) and pancreas (CCK-A) were extracted immediately. Each of cerebral cortex and pancreas was mixed with 50 mM Tris-HCl buffer (pH 7.4) and homogenized with a teflon-glass homogenizer and polytron homogenizer to obtain crude membrane specimens.
(§5) Preparation of test compounds and procedures of displacing assay
(§6) A 1M solution of a compound to be tested in DMSO is prepared and diluted with 50% DMSO to obtain a ten-fold dilution series.
(§7) The reaction is initiated by the addition of crude membrane specimen to solutions of different concentration each containing [^3 H]CCk-8 (final concentration, 1 nM). The mixture is incubated for 90 min at 25° C., filtered through glass filter with aspiration and washed with a cooled 50 mM Tris buffer. After the addition of Aquazol-2 cocktail the radioactivity is counted. The same procedure was repeated using 50% DMSO solution or Ceruletide (final concentration, 1 μM) instead of a solution of test compound so as to obtain the control value regarding total binding or the value regarding non-specific binding, respectively.
as §3
For orientation: Displacement assays read how much labelled ligand stays bound in the presence of the test substance.

The target in a further assay is T3, CCK-B receptor (Mus musculus, UniProt P56481).
T3 construct: crude membrane specimen from mouse cerebral cortex; from tissue; host or cells: cerebral cortex of male ddY mice, crude membranes
T3 sequence (P56481 1-453): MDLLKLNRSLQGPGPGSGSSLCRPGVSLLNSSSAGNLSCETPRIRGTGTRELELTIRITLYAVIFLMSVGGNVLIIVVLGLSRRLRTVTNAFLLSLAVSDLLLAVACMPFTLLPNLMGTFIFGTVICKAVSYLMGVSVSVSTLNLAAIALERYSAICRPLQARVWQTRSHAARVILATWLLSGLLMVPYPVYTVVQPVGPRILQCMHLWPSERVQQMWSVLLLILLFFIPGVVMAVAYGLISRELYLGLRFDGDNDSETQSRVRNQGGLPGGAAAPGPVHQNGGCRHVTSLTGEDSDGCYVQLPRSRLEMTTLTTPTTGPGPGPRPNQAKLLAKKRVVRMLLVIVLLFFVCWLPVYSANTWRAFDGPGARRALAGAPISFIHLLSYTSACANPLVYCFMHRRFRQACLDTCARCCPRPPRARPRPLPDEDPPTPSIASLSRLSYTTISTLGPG
Put plainly: CCK-B receptor antagonism: displacement of [3H]CCK-8 from crude membrane of cerebral cortex. Conditions: [3H]CCK-8 1 nM, 90 min, 25° C. The format is binding, mouse (male ddY). The protocol:
as §1, §2, §4, §5, §6, §7, §3

The IC50 is the midpoint of a concentration-inhibition curve. A high value points to weaker potency. In general, ED50 refers to the midpoint of the dose-response relation. Higher therefore signals a need for a large dose. As for `CC(C)(C)OC(=O)CN(C(=O)CNC(=O)Nc1cccc(C(F)(F)F)c1)c1ccccc1C(=O)C1CCCCC1` [Compound 15b, Cyclohexyl-(2-(N-(t-butoxycarbonylmethyl)-N-(N'-(m-trifluoromethylphenyl)ureidomethylcarbonyl)amino)phenyl)ketone], the IC50 on gastrin receptor is 5 nM; on CCK-A receptor it was 1150 nM; at CCK-B receptor it was 6 nM. Moreover, in the assay with gastric acid secretion, it took a dose of 0.026 mg/kg to reach the 50% effect level (ED50).
Take `COC(=O)c1cccc(NC(=O)NCC(=O)N(CC(=O)OC(C)(C)C)c2ccccc2C(=O)c2ccccc2)c1` [Compound 9l, 2-(N-(tert-Butoxycarbonylmethyl)-N'-(m-(carbomethoxy)phenyl)ureidomethylcarbonylamino)benzophenone]: the IC50 worked out at 7 nM on gastrin receptor, 1350 nM at CCK-A receptor and 56 nM at CCK-B receptor. Also, the 50% effect level in the assay on gastric acid secretion (ED50) was put at a dose of 0.04 mg/kg.
Regarding `CC(C)(C)OC(=O)CN(C(=O)CNC(=O)Nc1cccc(C(=O)O)c1)c1ccccc1C(=O)c1ccccc1` [Compound 8h], the 50% inhibitory concentration (IC50) at gastrin receptor came out at 4 nM; at CCK-A receptor, 5000 nM; at CCK-B receptor, 64 nM. For the same compound, the “Inhibitory Effect on acid secretion in rat ED50, i.d.” value in the assay with gastric acid secretion was 0.014 mg/kg.
